Experimental data: ChEMBL document CHEMBL3044835, “Pachyelasides A-D, novel molluscicidal triterpene saponins from Pachyelasma tessmannii” (2005)
In brackets after ≈: the same amount, converted by molar mass.

tested on: Biomphalaria glabrata; assay: Molluscicidal activity against Biomphalaria glabrata assessed as heartbeat measured after 24 hr; format: functional; details: read-out: LD50 (the source's name)

| SMILES | LC50 |
| --- | --- |
| CC1(C)CC[C@]2(C(=O)O)CC[C@]3(C)C(=CC[C@@H]4[C@@]5(C)CC[C@H](O[C@@H]6O[C@H](CO)[C@@H](O)[C@H](O)[C@H]6O[C@@H]6O[C@H](CO)[C@@H](O)[C@H](O[C@@H]7O[C@H](CO)[C@@H](O)[C@H](O)[C@H]7O[C@@H]7O[C@H](CO)[C@@H](O)[C@H](O)[C@H]7O)[C@H]6O)C(C)(C)[C@@H]5CC[C@]43C)[C@@H]2C1 [PACHYELASIDE B] | 2 µg/mL (≈ 1.81 µM) |
| CC1(C)C[C@H]2C3=CC[C@@H]4[C@@]5(C)CC[C@H](O[C@@H]6O[C@H](CO)[C@@H](O[C@@H]7OC[C@@H](O)[C@H](O)[C@H]7O)[C@H](O)[C@H]6O[C@@H]6O[C@H](CO)[C@@H](O)[C@H](O[C@@H]7O[C@H](CO)[C@@H](O)[C@H](O)[C@H]7O[C@@H]7O[C@H](CO)[C@@H](O)[C@H](O)[C@H]7O)[C@H]6O)C(C)(C)[C@@H]5CC[C@@]4(C)[C@]3(C)CC[C@@]2(C(=O)O)C[C@@H]1OC(=O)/C=C/c1ccccc1 [PACHYELASIDE D] | 8 µg/mL (≈ 5.78 µM) |
| CC1(C)C[C@H]2C3=CC[C@@H]4[C@@]5(C)CC[C@H](O[C@@H]6O[C@H](CO)[C@@H](O)[C@H](O)[C@H]6O[C@@H]6O[C@H](CO)[C@@H](O)[C@H](O[C@@H]7O[C@H](CO)[C@@H](O)[C@H](O)[C@H]7O[C@@H]7O[C@H](CO)[C@@H](O)[C@H](O)[C@H]7O)[C@H]6O)C(C)(C)[C@@H]5CC[C@@]4(C)[C@]3(C)CC[C@@]2(C(=O)O)C[C@@H]1OC(=O)/C=C/c1ccccc1 [PACHYELASIDE-A] | 2 µg/mL (≈ 1.6 µM) |
| CC1(C)C[C@H]2C3=CC[C@@H]4[C@@]5(C)CC[C@H](O[C@@H]6O[C@H](CO)[C@@H](O[C@@H]7OC[C@@H](O)[C@H](O)[C@H]7O)[C@H](O)[C@H]6O[C@@H]6OC[C@@H](O)[C@H](O[C@@H]7O[C@H](CO)[C@@H](O)[C@H](O)[C@H]7O[C@@H]7O[C@H](CO)[C@@H](O)[C@H](O)[C@H]7O)[C@H]6O)C(C)(C)[C@@H]5CC[C@@]4(C)[C@]3(C)CC[C@@]2(C(=O)O)C[C@@H]1OC(=O)/C=C/c1ccccc1 [PACHYELASIDE C] | 2 µg/mL (≈ 1.48 µM) |
